System: PANK2−/− IMR32 cells
Test: Coenzyme A assay in PANK2 silenced cells (LC-MS quantification of free CoA)
Type: cell-based, human
Conditions: fold increase in CoA levels relative to controls, treated twice, 24 h + 24 h; for fold induction at 1 µM / fold induction at 50 µM / fold induction at 10 µM: Homo sapiens, IMR-32; for fold induction at 1 µM: compound concentration 1 uM; for PANK2−/− CoA Fold increase / fold induction at 10 µM: compound concentration 10 uM; for fold induction at 50 µM: compound concentration 50 uM
Method: A human neuroblastoma IMR32 cell line (ATCC) with stably PANK2 silencing was obtained by lentiviral-delivered small hairpin RNA and cultured in MEM (Invitrogen) supplemented with 10% fetal bovine serum, 2 mM glutamine, 1% penicillin-streptomycin, 1 mM sodium pyruvate, 1 mM non-essential amino acids, and 1.5 g/l sodium bicarbonate.
A non-silencing shRNA construct (scrambled shRNA) and an empty vector expressing GFP alone were used as negative controls. The GFP tag subcloned into the lentiviral vectors was used to monitor the transfection efficiency.
Three days after transduction medium was removed and replaced with fresh medium containing […] puromycin. […] The level of PANK2 expression in selected clones was assessed by Western Blot analysis.
To quantify CoA, PANK2−/− IMR32 cells were plated on 12-well culture plates (Corning) at a density of 0.2×10^6 cells per well. […] Controls with medium containing 0.1% DMSO without test compounds were also included in each plate. […] Before LC-MS analysis of CoA levels, cells were harvested, counted, and collected in a 15 ml falcon tube and centrifuged at 200×g for 5 min at 4° C. Supernatant was removed and cell pellet was washed in 10 ml of ice-cold PBS. To further confirm that the numbers of cells in each sample were equivalent, an equal fraction of pellet was collected from each sample and subjected to protein determination analysis. After centrifugation and supernatant removal, the cell pellet was rapidly frozen in Liquid Nitrogen and stored at −80° C. until analysis.
Intracellular CoA levels were calculated considering an intracellular volume of 1 million cells=2 μl.
The 1*10^6 cellular pellet was extracted with 120 μl of aqueous 20% TFA.
100 μL samples of supernatant were dried under N2 at 20° C. in the dark.
Samples were re-dissolved in 100 μl of 10 mM NH4^+ AcO^− buffer pH 5.1+IS (Dextrorphan 50 ng/ml), stirred for 2 min, sonicated in ultrasonic bath for 1 min, then stirred again for 1 min, and injected into LC-MS.
LC-MS/MS was performed using an Agilent HPLC (1100 Series, USA). The LC system was interfaced with an API-4000 Q-Trap triple quadrupole mass spectrometer (AB Sciex, Toronto, Canada) equipped with a TurboIonSpray ionization source operating in positive ion mode. Analyst™ software version 1.6 (AB Sciex, Toronto, Canada) was used for data acquisition and processing. CoA was separated using a Luna C18 column (2.0×50 mm; 5 μm particle size), column at 25° C. and flow rate of 0.2 ml/min. Injection volume was 15 μl. The mobile phases consisted of water containing 10 mM ammonium acetate pH 7 (mobile phase A) and MeCN-2-propanol 9:1 (mobile phase B).
Results are expressed as fold increase in CoA levels relative to controls (using LC-MS quantification of free CoA).

SMILES	fold induction at 1 µM	other results
CC(=O)SCCNC(=O)CCNC(=O)[C@@H]1O[P@@](=O)(OCOC(=O)c2cc(C(C)(C)C)n[nH]2)OCC1(C)C [R1016, (((2S,4R)-4-((3-((2-(acetylthio)ethyl)amino)-3-oxopropyl)carbamoyl)-5,5-dimethyl-2-oxido-1,3,2-dioxaphosphinan-2-yl)oxy)methyl 3-(tert-butyl)-1H-pyrazole-5-carboxylate]	323	
CC(=O)SCCNC(=O)CCNC(=O)[C@@H]1OP(=O)(Oc2ccccc2)OCC1(C)C (stereo partly drawn) [R1043, S-(2-(3-((4R)-5,5-dimethyl-2-oxido-2-phenoxy-1,3,2-dioxaphosphinane-4-carboxamido)propanamido)ethyl) ethanethioate]		PANK2−/− CoA Fold increase: 1.1 fold
CC(=O)SCCNC(=O)CCNC(=O)[C@@H]1OP(=O)(OCOC(=O)c2ccc(C(F)(F)F)cn2)OCC1(C)C (stereo partly drawn) [R1040, (((4R)-4-((3-((2-(acetylthio)ethyl)amino)-3-oxopropyl)carbamoyl)-5,5-dimethyl-2-oxido-1,3,2-dioxaphosphinan-2-yl)oxy)methyl 5-(trifluoromethyl)picolinate]		fold induction at 50 µM: 4.5
CC(=O)SCCNC(=O)CCNC(=O)[C@@H]1OP(=O)(OCOC(=O)c2cccc(Cl)c2)OCC1(C)C (stereo partly drawn) [R1034, (((4R)-4-((3-((2-(acetylthio)ethyl)amino)-3-oxopropyl)carbamoyl)-5,5-dimethyl-2-oxido-1,3,2-dioxaphosphinan-2-yl)oxy)methyl 3-chlorobenzoate]	29.6	
CC(=O)SCCNC(=O)CCNC(=O)[C@@H]1OP(=O)(OCOC(=O)c2cccc(C)c2)OCC1(C)C (stereo partly drawn) [R1039, (((4R)-4-((3-((2-(acetylthio)ethyl)amino)-3-oxopropyl)carbamoyl)-5,5-dimethyl-2-oxido-1,3,2-dioxaphosphinan-2-yl)oxy)methyl 3-methylbenzoate]	27.4	
CC(=O)SCCNC(=O)CCNC(=O)[C@@H]1O[P@](=O)(Oc2ccccc2)OCC1(C)C [R1042, S-(2-(3-((2R,4R)-5,5-dimethyl-2-oxido-2-phenoxy-1,3,2-dioxaphosphinane-4-carboxamido)propanamido)ethyl) ethanethioate]		PANK2−/− CoA Fold increase: 1.0 fold
CC(=O)SCCNC(=O)CCNC(=O)[C@@H]1OP(=O)(OCOC(=O)c2ccc(C(F)(F)F)cc2)OCC1(C)C (stereo partly drawn) [R1037, (((4R)-4-((3-((2-(acetylthio)ethyl)amino)-3-oxopropyl)carbamoyl)-5,5-dimethyl-2-oxido-1,3,2-dioxaphosphinan-2-yl)oxy)methyl 4-(trifluoromethyl)benzoate]	30.1	
COc1cccc(C(=O)OCOP2(=O)OCC(C)(C)[C@H](C(=O)NCCC(=O)NCCSC(C)=O)O2)c1 (stereo partly drawn) [R1038, (((4R)-4-((3-((2-(acetylthio)ethyl)amino)-3-oxopropyl)carbamoyl)-5,5-dimethyl-2-oxido-1,3,2-dioxaphosphinan-2-yl)oxy)methyl 3-methoxybenzoate]	26.2	
CC(=O)OCCNC(=O)OCOP1(=O)OCC(C)(C)[C@H](C(=O)NCCC(=O)NCCSC(C)=O)O1 (stereo partly drawn) [R1025, 2-((((((4R)-4-((3-((2-(acetylthio)ethyl)amino)-3-oxopropyl)carbamoyl)-5,5-dimethyl-2-oxido-1,3,2-dioxaphosphinan-2-yl)oxy)methoxy)carbonyl)amino)ethyl acetate]		fold induction at 10 µM: 1.4
COC(=O)[C@@H](NP1(=O)OCC(C)(C)[C@H](C(=O)NCCC(=O)NCCSC(C)=O)O1)C(C)C (stereo partly drawn) [R1026, methyl ((4R)-4-((3-((2-(acetylthio)ethyl)amino)-3-oxopropyl)carbamoyl)-5,5-dimethyl-2-oxido-1,3,2-dioxaphosphinan-2-yl)-L-valinate]		fold induction at 50 µM: 2.5
CC(=O)SCCNC(=O)CCNC(=O)[C@@H]1OP(=O)(OCOC(=O)c2ccc(Cl)cc2)OCC1(C)C (stereo partly drawn) [R1033, (((4R)-4-((3-((2-(acetylthio)ethyl)amino)-3-oxopropyl)carbamoyl)-5,5-dimethyl-2-oxido-1,3,2-dioxaphosphinan-2-yl)oxy)methyl 4-chlorobenzoate]	25.8	
CC(=O)SCCNC(=O)CCNC(=O)[C@@H]1OP(=O)(OCOC(=O)c2ccccc2)OCC1(C)C (stereo partly drawn) [R1009, (((4R)-4-((3-((2-(acetylthio)ethyl)amino)-3-oxopropyl)carbamoyl)-5,5-dimethyl-2-oxido-1,3,2-dioxaphosphinan-2-yl)oxy)methyl benzoate]	69.5	
CC(=O)SCCNC(=O)CCNC(=O)[C@@H]1OP(=O)(OCOC(=O)c2ccc(C)cc2)OCC1(C)C (stereo partly drawn) [R1036, (((4R)-4-((3-((2-(acetylthio)ethyl)amino)-3-oxopropyl)carbamoyl)-5,5-dimethyl-2-oxido-1,3,2-dioxaphosphinan-2-yl)oxy)methyl 4-methylbenzoate]	52.2	
CC(=O)OCC(C)(C)NC(=O)OCOP1(=O)OCC(C)(C)[C@H](C(=O)NCCC(=O)NCCSC(C)=O)O1 (stereo partly drawn) [R1027, 2-((((((4R)-4-((3-((2-(acetylthio)ethyl)amino)-3-oxopropyl)carbamoyl)-5,5-dimethyl-2-oxido-1,3,2-dioxaphosphinan-2-yl)oxy)methoxy)carbonyl)amino)-2-methylpropyl acetate]		fold induction at 50 µM: 2.8
CC(=O)SCCNC(=O)CCNC(=O)[C@@H]1O[P@@](=O)(OCOC(=O)c2cc(C(C)(C)C)nn2C)OCC1(C)C [R1045, (((2S,4R)-4-((3-((2-(acetylthio)ethyl)amino)-3-oxopropyl)carbamoyl)-5,5-dimethyl-2-oxido-1,3,2-dioxaphosphinan-2-yl)oxy)methyl 3-(tert-butyl)-1-methyl-1H-pyrazole-5-carboxylate]	2.3	
CC(=O)SCCNC(=O)CCNC(=O)[C@@H]1O[P@@](=O)(OCOC(=O)NCCOC(=O)C(C)(C)C)OCC1(C)C [R1030, 2-((((((2S,4R)-4-((3-((2-(acetylthio)ethyl)amino)-3-oxopropyl)carbamoyl)-5,5-dimethyl-2-oxido-1,3,2-dioxaphosphinan-2-yl)oxy)methoxy)carbonyl)amino)ethyl pivalate]		fold induction at 10 µM: 7.1
CC(=O)SCCNC(=O)CCNC(=O)[C@@H]1O[P@@](=O)(Oc2ccccc2)OCC1(C)C [R1041, S-(2-(3-((2S,4R)-5,5-dimethyl-2-oxido-2-phenoxy-1,3,2-dioxaphosphinane-4-carboxamido)propanamido)ethyl) ethanethioate]		PANK2−/− CoA Fold increase: 1.8 fold
COC(=O)[C@@H](N[P@@]1(=O)OCC(C)(C)[C@H](C(=O)NCCC(=O)NCCSC(C)=O)O1)C(C)C [R1014, methyl ((2R,4R)-4-((3-((2-(acetylthio)ethyl)amino)-3-oxopropyl)carbamoyl)-5,5-dimethyl-2-oxido-1,3,2-dioxaphosphinan-2-yl)-L-valinate]		fold induction at 50 µM: 1.7
CC(=O)SCCNC(=O)CCNC(=O)[C@@H]1OP(=O)(OCOC(=O)C(C)C)OCC1(C)C (stereo partly drawn) [R1024, (((4R)-4-((3-((2-(acetylthio)ethyl)amino)-3-oxopropyl)carbamoyl)-5,5-dimethyl-2-oxido-1,3,2-dioxaphosphinan-2-yl)oxy)methyl isobutyrate]	1.4	
CC(=O)SCCNC(=O)CCNC(=O)[C@@H]1OP(=O)(OCOC(=O)NCCOC(=O)[C@@H](N)C(C)C)OCC1(C)C (stereo partly drawn) [R1032, 2-((((((4R)-4-((3-((2-(acetylthio)ethyl)amino)-3-oxopropyl)carbamoyl)-5,5-dimethyl-2-oxido-1,3,2-dioxaphosphinan-2-yl)oxy)methoxy)carbonyl)amino)ethyl L-valinate]		fold induction at 50 µM: 1
CC(=O)SCCNC(=O)CCNC(=O)[C@@H]1O[P@](=O)(OCOC(=O)c2cc(C(C)(C)C)nn2C)OCC1(C)C [R1044, (((2R,4R)-4-((3-((2-(acetylthio)ethyl)amino)-3-oxopropyl)carbamoyl)-5,5-dimethyl-2-oxido-1,3,2-dioxaphosphinan-2-yl)oxy)methyl 3-(tert-butyl)-1-methyl-1H-pyrazole-5-carboxylate]	20.3	
